This is an account of results in US20130102595A1 (Curis, Inc., priority 2011, published 2013).

Data set [1] deals with HDACs (HeLa cell nuclear extracts). Kind of data set: HDAC enzymatic activity, Biomol Color de Lys system. In kind it is biochemical. The note with it: 1 hour, 25° C. Summed up:
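IC50 from sigmoidal fit of developer-terminated fluorescence (ex 350-380/em 440-460 nm). Reaction: 1 h at room temperature (25 °C), HeLa nuclear extract as HDAC source, artificial substrate, buffer of 50 mM Tris/Cl pH 8.0 with 137 mM NaCl, 2.7 mM KCl and 1 mM MgCl2.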

A further data set has as its target T1, PI3Kα (p110α/p85α) (Homo sapiens, UniProt P42336).
T1 construct: GST (N); made in house; host or cells: Baculovirus-infected Sf9 cells
Description: PI3Kα ADP-Glo assay. It is filed as biochemical. The note with it: 20 μM PIP2, 10 μM ATP, 30 minutes. Summed up: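 Luminescent ADP-Glo detection, after depletion of residual ATP, quantified ADP made by PI3Kα phosphorylating 20 μM PIP2 at 10 μM ATP. The kinase step ran 30 min at room temperature in HEPES pH 7.4 with MgCl2, DTT and orthovanadate, using baculovirus/Sf9-expressed full-length p110α/p85α complex.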

SMILES strings stand for the structures. pIC50: −log10 of the molar value.

T1 sequence (P42336 whole entry): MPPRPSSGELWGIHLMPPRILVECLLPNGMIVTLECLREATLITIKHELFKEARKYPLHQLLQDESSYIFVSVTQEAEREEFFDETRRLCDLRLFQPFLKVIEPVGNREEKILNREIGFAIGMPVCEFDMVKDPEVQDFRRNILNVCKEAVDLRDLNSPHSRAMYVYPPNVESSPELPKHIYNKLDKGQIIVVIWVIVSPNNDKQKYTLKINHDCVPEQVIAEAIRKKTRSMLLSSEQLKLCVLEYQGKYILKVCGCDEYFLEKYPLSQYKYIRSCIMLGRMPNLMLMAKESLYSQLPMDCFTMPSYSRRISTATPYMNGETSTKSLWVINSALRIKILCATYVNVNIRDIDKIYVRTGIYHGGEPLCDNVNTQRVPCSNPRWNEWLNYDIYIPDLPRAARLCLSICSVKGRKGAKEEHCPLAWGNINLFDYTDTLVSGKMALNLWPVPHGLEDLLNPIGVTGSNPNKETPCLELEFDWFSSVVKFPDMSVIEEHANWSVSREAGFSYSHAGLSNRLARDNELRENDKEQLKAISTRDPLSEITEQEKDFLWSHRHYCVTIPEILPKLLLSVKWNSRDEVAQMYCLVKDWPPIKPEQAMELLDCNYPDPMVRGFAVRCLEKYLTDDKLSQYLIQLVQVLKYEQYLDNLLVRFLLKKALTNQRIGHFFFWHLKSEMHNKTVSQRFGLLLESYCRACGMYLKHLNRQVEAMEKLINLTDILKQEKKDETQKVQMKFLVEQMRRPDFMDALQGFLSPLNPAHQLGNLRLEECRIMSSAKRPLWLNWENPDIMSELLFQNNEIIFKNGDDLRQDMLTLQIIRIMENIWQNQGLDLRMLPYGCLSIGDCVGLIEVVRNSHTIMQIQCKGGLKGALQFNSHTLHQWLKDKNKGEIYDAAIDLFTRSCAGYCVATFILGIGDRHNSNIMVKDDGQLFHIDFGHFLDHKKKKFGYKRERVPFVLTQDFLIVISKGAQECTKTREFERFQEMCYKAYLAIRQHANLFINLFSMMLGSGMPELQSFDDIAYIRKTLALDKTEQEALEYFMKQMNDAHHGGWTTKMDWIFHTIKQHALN
T1 sequence (P27986 whole entry partner): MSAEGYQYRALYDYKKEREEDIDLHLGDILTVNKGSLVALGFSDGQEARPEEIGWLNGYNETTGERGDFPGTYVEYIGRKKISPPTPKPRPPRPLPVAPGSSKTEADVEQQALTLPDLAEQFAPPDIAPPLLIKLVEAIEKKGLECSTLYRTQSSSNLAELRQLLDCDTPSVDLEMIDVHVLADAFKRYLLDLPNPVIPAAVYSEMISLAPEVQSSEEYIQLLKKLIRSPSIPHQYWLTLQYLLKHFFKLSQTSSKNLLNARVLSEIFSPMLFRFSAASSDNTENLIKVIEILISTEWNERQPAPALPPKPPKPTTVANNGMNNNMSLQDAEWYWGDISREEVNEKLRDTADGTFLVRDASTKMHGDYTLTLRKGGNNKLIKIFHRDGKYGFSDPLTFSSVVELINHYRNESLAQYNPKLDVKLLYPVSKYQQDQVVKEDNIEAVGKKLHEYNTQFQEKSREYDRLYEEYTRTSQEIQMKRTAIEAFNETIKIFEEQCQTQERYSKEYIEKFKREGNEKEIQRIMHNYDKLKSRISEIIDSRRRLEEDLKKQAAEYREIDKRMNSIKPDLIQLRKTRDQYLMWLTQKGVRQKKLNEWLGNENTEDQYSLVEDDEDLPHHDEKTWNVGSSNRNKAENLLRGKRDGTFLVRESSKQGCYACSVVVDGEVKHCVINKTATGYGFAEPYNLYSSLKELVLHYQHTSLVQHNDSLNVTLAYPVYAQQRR

For orientation: pIC50 means the IC50 on a negative log10 scale, so that one unit is a factor of ten. High values mean a low IC50, low ones a high IC50. The term melting point denotes the temperature of the solid-liquid transition. As for `CN(Cc1cc2nc(-c3ccc4[nH]c(=O)[nH]c4c3)nc(N3CCOCC3)c2s1)c1ncc(C(=O)NO)cn1` [Compound 186, N-hydroxy-2-(methyl((4-morpholino-2-(2-oxo-2,3-dihydro-1H-benzo[d]imidazol-5-yl)thieno[3,2-d]pyrimidin-6-yl)methyl)amino)pyrimidine-5-carboxamide], the melting point lay in the range of 272 to 275 °C. Besides, the pIC50 in data set [1] was more than 7.00. On PI3Kα (p110α/p85α), the pIC50 was less than 5.00.
In the same order, the values of `CNc1ccc(-c2nc(N3CCOCC3)c3sc(S(=O)(=O)NCC4CCN(c5ncc(C(=O)NO)cn5)CC4)cc3n2)cn1` [Compound 310, N-Hydroxy-2-(4-((2-(6-(methylamino)pyridin-3-yl)-4-morpholinothieno[3,2-d]pyrimidine-6-sulfonamido)methyl)piperidin-1-yl)pyrimidine-5-carboxamide] are 190 to 197 °C, more than 7.00 and more than 7.00.
In turn, `O=C(NO)c1ccc(NCc2cc3nc(-c4cccc5[nH]ncc45)nc(N4CCOCC4)c3s2)cc1` [Compound 78, 4-((2-(1H-indazol-4-yl)-4-morpholinothieno[3,2-d]pyrimidin-6-yl)methylamino)-N-hydroxybenzamide] registered a melting point of 180 to 183 °C. Moreover, in data set [1], the negative logarithm of the IC50 (pIC50) is more than 7.00. This compound also showed a pIC50 on PI3Kα (p110α/p85α) of 6.00 to 7.00.
On the same counts, the results for `CCCCN(Cc1cc2nc(-c3cccc4[nH]ncc34)nc(N3CCOCC3)c2s1)c1ncc(C(=O)NO)cn1` [Compound 85, 2-(((2-(1H-indazol-4-yl)-4-morpholinothieno[3,2-d]pyrimidin-6-yl)methyl)(butyl)amino)-N-hydroxypyrimidine-5-carboxamide] are 234 to 236 °C, more than 7.00 and 6.00 to 7.00.
On the same counts, the results for `COc1ccc(-c2nc(N3CCOCC3)c3sc(CN(C)c4ncc(C(=O)NO)cn4)cc3n2)cc1` [Compound 131, N-hydroxy-2-(((2-(4-methoxyphenyl)-4-morpholinothieno[3,2-d]pyrimidin-6-yl)methyl)(methyl)amino)pyrimidine-5-carboxamide] are 247 °C (dec.), more than 7.00 and less than 5.00.
On the same counts, the results for `CN(CCCCCC(=O)NO)Cc1cc2nc(-c3cccc4[nH]ncc34)nc(N3CCOCC3)c2s1` [Compound 103, 6-(((2-(1H-indazol-4-yl)-4-morpholinothieno[3,2-d]pyrimidin-6-yl)methyl)(methyl)amino)-N-hydroxyhexanamide] are 115 to 118 °C, more than 7.00 and 6.00 to 7.00.
Compound `CN(Cc1cc2nc(-c3ccc(N)c(C#N)c3)nc(N3CCOCC3)c2s1)c1ncc(C(=O)NO)cn1` [Compound 280, 2-(((2-(4-Amino-3-cyanophenyl)-4-morpholinothieno[3,2-d]pyrimidin-6-yl)methyl)(methyl)amino)-N-hydroxypyrimidine-5-carboxamide] gave a melting point of 237 to 240 °C. Moreover, in data set [1], the pIC50 is more than 7.00. The compound further had a pIC50 on PI3Kα (p110α/p85α) of 6.00 to 7.00.
On the same counts, the results for `CN(C)c1ccc(-c2nc(N3CCOCC3)c3sc(CN(C)c4ncc(C(=O)NO)cn4)cc3n2)cn1` [Compound 114, 2-(((2-(6-(dimethylamino)pyridin-3-yl)-4-morpholinothieno[3,2-d]pyrimidin-6-yl)methyl)(methyl)amino)-N-hydroxypyrimidine-5-carboxamide] are 190 to 195 °C, more than 7.00 and 6.00 to 7.00.
On the same counts, the results for `CN(Cc1cc2nc(-c3ccc(Cl)cc3)nc(N3CCOCC3)c2s1)c1ncc(C(=O)NO)cn1` [Compound 147, 2-(((2-(4-chlorophenyl)-4-morpholinothieno[3,2-d]pyrimidin-6-yl)methyl)(methyl)amino)-N-hydroxypyrimidine-5-carboxamide] are 153 °C, more than 7.00 and less than 5.00.
`COc1ccc(-c2nc(N3CCOCC3)c3sc(NCCCCCC(=O)NO)cc3n2)cn1` [Compound 233, 6-[2-(6-Methoxy-pyridin-3-yl)-4-morpholin-4-yl-thieno[3,2-d]pyrimidin-6-ylamino]-hexanoic acid hydroxyamide] had a melting point of 125 to 130 °C. Further, the pIC50 in data set [1] is more than 7.00. Further, the negative logarithm of the IC50 (pIC50) against PI3Kα (p110α/p85α) was more than 7.00.
Regarding `COc1ccc(-c2nc(N3CCOCC3)c3sc(NS(=O)(=O)c4cccc(/C=C/C(=O)NO)c4)cc3n2)cn1` [Compound 221, (E)-N-hydroxy-3-(3-(N-(2-(6-methoxypyridin-3-yl)-4-morpholinothieno[3,2-d]pyrimidin-6-yl)sulfamoyl)phenyl)acrylamide], the melting point is more than 300 °C. The compound further gave a pIC50 in data set [1] of more than 7.00. The same compound showed a pIC50 at PI3Kα (p110α/p85α) of more than 7.00.
`CC(=O)c1cc(-c2nc(N3CCOCC3)c3sc(CN(C)c4ncc(C(=O)NO)cn4)cc3n2)ccc1N` [Compound 281, 2-{[2-(3-Acetyl-4-amino-phenyl)-4-morpholin-4-yl-thieno[3,2-d]pyrimidin-6-ylmethyl]-methyl-amino}-pyrimidine-5-carboxylic acid hydroxyamide] gave a melting point of 156 to 158 °C. Also, in data set [1], the pIC50 was more than 7.00. This compound also gave a negative logarithm of the IC50 (pIC50) at PI3Kα (p110α/p85α) of 6.00 to 7.00.
In turn, `CN(Cc1cc2nc(-c3ccc(N)c(N)c3)nc(N3CCOCC3)c2s1)c1ncc(C(=O)NO)cn1` [Compound 156, 2-(((2-(3,4-diaminophenyl)-4-morpholinothieno[3,2-d]pyrimidin-6-yl)methyl)(methyl)amino)-N-hydroxypyrimidine-5-carboxamide] displayed a melting point of 222 to 225 °C. The same compound had a negative logarithm of the IC50 (pIC50) in data set [1] of more than 7.00. At PI3Kα (p110α/p85α), this compound showed a pIC50 of 6.00 to 7.00.
Take `Cc1ccc(-c2nc(N3CCOCC3)c3sc(CN(C)c4ncc(C(=O)NO)cn4)cc3n2)cc1` [Compound 201, N-hydroxy-2-(methyl((4-morpholino-2-p-tolylthieno[3,2-d]pyrimidin-6-yl)methyl)amino)pyrimidine-5-carboxamide]: the melting point is 170 to 172 °C. The compound further gave a pIC50 in data set [1] of more than 7.00. At PI3Kα (p110α/p85α), this compound showed a pIC50 of 6.00 to 7.00.
On the same counts, the results for `CN(Cc1cc2nc(-c3ccc(N)c(Cl)c3)nc(N3CCOCC3)c2s1)c1ncc(C(=O)NO)cn1` [Compound 275, 2-(((2-(4-Amino-3-chlorophenyl)-4-morpholinothieno[3,2-d]pyrimidin-6-yl)methyl)(methyl)amino)-N-hydroxypyrimidine-5-carboxamide] are 241 to 246 °C, more than 7.00 and 6.00 to 7.00.
On the same counts, the results for `CS(=O)(=O)N1CCN(Cc2cc3nc(-c4ccc(OCCCCCCC(=O)NO)cc4)nc(N4CCOCC4)c3s2)CC1` [Compound 321, N-Hydroxy-7-(4-(6-((4-(methylsulfonyl)piperazin-1-yl)methyl)-4-morpholinothieno[3,2-d]pyrimidin-2-yl)phenoxy)heptanamide] are 143 to 145 °C, 6.00 to 7.00 and 6.00 to 7.00.
In the same order, the values of `Nc1ccc(-c2nc(N3CCOCC3)c3sc(C(=O)NCC4CCN(c5ncc(C(=O)NO)cn5)CC4)cc3n2)cc1` [Compound 307, 2-(4-Aminophenyl)-N-((1-(5-(hydroxycarbamoyl)pyrimidin-2-yl)piperidin-4-yl)methyl)-4-morpholinothieno[3,2-d]pyrimidine-6-carboxamide] are 232 to 238 °C, more than 7.00 and 6.00 to 7.00.
On to `CNc1ccc(-c2nc(N3CCOCC3)c3sc(CN(C)c4ncc(C(=O)NO)cn4)cc3n2)cc1` [Compound 151, N-hydroxy-2-(methyl((2-(4-(methylamino)phenyl)-4-morpholinothieno[3,2-d]pyrimidin-6-yl)methyl)amino)pyrimidine-5-carboxamide], for which the melting point was in the range of 218 to 220 °C. The compound also had a pIC50 in data set [1] of more than 7.00. The compound further gave a pIC50 on PI3Kα (p110α/p85α) of less than 5.00.
As for `CN(Cc1cc2nc(-c3cc(F)c(N)c(F)c3)nc(N3CCOCC3)c2s1)c1ncc(C(=O)NO)cn1` [Compound 282, 2-(((2-(4-Amino-3,5-difluorophenyl)-4-morpholinothieno[3,2-d]pyrimidin-6-yl)methyl)(methyl)amino)-N-hydroxypyrimidine-5-carboxamide], the melting point was 190 to 193 °C. The pIC50 in data set [1] was more than 7.00. In addition, the pIC50 at PI3Kα (p110α/p85α) is 6.00 to 7.00.
`CNc1ncc(-c2nc(N3CCOCC3)c3sc(NCCCCC(=O)NO)cc3n2)cn1` [Compound 227, N-Hydroxy-5-(2-(2-(methylamino)pyrimidin-5-yl)-4-morpholinothieno[3,2-d]pyrimidin-6-ylamino)pentanamide] had a melting point of 206 to 210 °C. The compound further gave a pIC50 in data set [1] of more than 7.00. For the same compound, the pIC50 against PI3Kα (p110α/p85α) was more than 7.00.
In the case of `CN(Cc1cc2nc(-c3cccc(CN)c3)nc(N3CCOCC3)c2s1)c1ncc(C(=O)NO)cn1` [Compound 137, 2-(((2-(3-(aminomethyl)phenyl)-4-morpholinothieno[3,2-d]pyrimidin-6-yl)methyl)(methyl)amino)-N-hydroxypyrimidine-5-carboxamide], the melting point lay in the range of 173 to 176 °C. Besides, the negative-log IC50 (pIC50) in data set [1] was more than 7.00. Besides, at PI3Kα (p110α/p85α), the pIC50 was 5.00 to 6.00.
